{"source": "paper PMC7663597", "about": "“Structure–Activity Relationship of Aloperine Derivatives as New Anti–Liver Fibrogenic Agents” (Molecules, 2020)", "assay_type_in_all_cases": "cell-based, human", "key": {"COL1A1 promotor": {"test_system": "COL1A1 promotor", "assay": "COL1A1 promotor luciferase reporter gene assay in TGF-β1-treated LX-2 cells", "conditions": "Homo sapiens; for inhibition at 40 µM / inhibition at 80 µM: LX-2, 24 h; for inhibition at 40 µM: 24 h with TGF-β1, read-out: Inhibition Percentage 40 μM (inhibition rate of COL1A1 promotor's activity); for inhibition at 80 µM: 24 h with TGF-β1, read-out: Inhibition Percentage 80 μM (inhibition rate of COL1A1 promotor's activity); for IC50: read-out: IC50 (concentration required to inhibit 50% of COL1A1 promotor's activity)", "protocol": "A single luciferase reporter gene detection model was applied to evaluate the inhibitory effects of all target compounds on the expression of COL1A1 promotor in human hepatic stellate LX-2 cells at the concentrations of 40 and 80 μM, taking EGCG as the positive control. The LX-2 cell lines were transfected with COL1A1 promotor luciferase plasmid pGL4.17-COL1A1P for 24 h, then simultaneously treated with TGF-β1 and a tested compound for 24 h.\nCells were maintained on Dulbecco’s Modified Eagle’s medium (DMEM), laid on 96-well plate. DMEM medium was supplemented with 10% fetal bovine serum (FBS) at 37 °C humidified atmosphere with 5% CO2. Furthermore, serum-free culture was required until the cells were confluent at 90−95%. 24 h later the cells were treated with a tested compound (40 and 80 μM) for 24 h. The COL1A1 promotor activity was detected by the Bright-Glo luciferase assay system. Alternatively, to test the acute effects of compound on luciferase activity, 24 h later the cells were lysed and the lysate was treated with a tested compound (80 μM) for 2 h, then the luciferase was detected by the Bright-Glo luciferase assay system (Promega, Madison, WI, USA)."}, "COL1A1 mRNA": {"test_system": "COL1A1 mRNA", "assay": "RT-PCR of COL1A1 mRNA in LX-2 cells", "conditions": "24 h", "protocol": "(§1) In the absence or presence of TGF-β1 (2 ng/mL) treatment, LX-2 cells were treated with key compounds 4n and 4p at concentrations of 6 μM and 12 μM, or 4i at a concentration of 12 μM, respectively.\nLX-2 cells were laid on 6-well plate and cultured in DMEM supplemented with 10% fetal bovine serum (FBS) in a 5% CO2 atmosphere at 37 °C. And serum-free culture was required until the cells reached 90−95% confluence. […] Total RNA of the LX-2 cells was isolated using TRIzol reagent, purified using NucleoSpin RNA Clean-up. Reverse transcription was performed with Transcriptor first strand cDNA synthesis kit. Subsequently, the cDNA levels was determined by ABI 7500 Fast Real-Time PCR System using TaqMan probes of COL1A1, TGF-β1, α-SMA, and GAPDH (sequence not disclosed by ABI) and FastStart Universal Probe master mix (Roche, Indianapolis, IN, USA)."}, "TGFB1 mRNA": {"test_system": "TGFB1 mRNA", "assay": "RT-PCR of TGFB1 mRNA in LX-2 cells", "conditions": "TGF-β1 (2 ng/mL) stimulation, 24 h", "protocol": "as §1\nSince the stimulation of TGF-β1 provokes the expression of a series of fibrosis genes, for example COL1A1 and TGFB1 [24, 25], the effects of key compounds on TGF-β1 expression were evaluated by RT-PCR and western blot assays. As shown in Figure 2B and Supplementary Table S1, the expression of TGFB1 mRNA was maintained at a low level, and the addition of a key compound seemed to have little effect on its expression.\nLX-2 cells were laid on 6-well plate and cultured in DMEM supplemented with 10% fetal bovine serum (FBS) in a 5% CO2 atmosphere at 37 °C. And serum-free culture was required until the cells reached 90−95% confluence. After 24 h, cells were incubated with […] concentrations of aloperine derivatives in the presence of 2 ng/mL of TGF-β1 for 24 h. Total RNA of the LX-2 cells was isolated using TRIzol reagent, purified using NucleoSpin RNA Clean-up. Reverse transcription was performed with Transcriptor first strand cDNA synthesis kit. Subsequently, the cDNA levels was determined by ABI 7500 Fast Real-Time PCR System using TaqMan probes of COL1A1, TGF-β1, α-SMA, and GAPDH (sequence not disclosed by ABI) and FastStart Universal Probe master mix (Roche, Indianapolis, IN, USA)."}, "[1]": {"conditions": "TGF-β1 (2 ng/mL) stimulation, 6 μM"}, "[2]": {"conditions": "TGF-β1 (2 ng/mL) stimulation, 12 μM"}}, "data": [{"compound": "O=C(CN1CCCC2=C[C@H]3C[C@H](CN4CCCC[C@H]34)[C@@H]21)N(c1ccccc1)c1ccc2ccccc2c1", "note": "[4n, 12N-(N’-(Naphthalen-2-yl)-N’-phenyl)carbamoylmethyl aloperine]", "values": [{"measurement": "inhibition at 40 µM", "setting": "COL1A1 promotor", "result": "99.9 ± 0.1", "unit": "%"}, {"measurement": "inhibition at 80 µM", "setting": "COL1A1 promotor", "result": 100, "unit": "%"}, {"measurement": "IC50", "setting": "COL1A1 promotor", "result": "13.3 ± 0.5", "unit": "µM"}, {"measurement": "Inhibitory rate of COL1A1 transcription (mRNA)", "setting": "COL1A1 mRNA; [1]", "result": 76.0, "unit": "%"}, {"measurement": "Inhibitory rate of COL1A1 transcription (mRNA)", "setting": "COL1A1 mRNA; [2]", "result": 84.5, "unit": "%"}, {"measurement": "Inhibitory rate of COL1A1 transcription (mRNA)", "setting": "COL1A1 mRNA; absence of TGF-β1, 6 μM", "result": 42, "unit": "%"}, {"measurement": "Inhibitory rate of COL1A1 transcription (mRNA)", "setting": "COL1A1 mRNA; absence of TGF-β1, 12 μM", "result": 47, "unit": "%"}, {"measurement": "Inhibitory rate of TGFB1 mRNA expression", "setting": "TGFB1 mRNA; 6 μM", "result": 57.7, "unit": "%"}, {"measurement": "Inhibitory rate of TGFB1 mRNA expression", "setting": "TGFB1 mRNA; 12 μM", "result": 60.0, "unit": "%"}]}, {"compound": "O=C(CN1CCCC2=C[C@H]3C[C@H](CN4CCCC[C@H]34)[C@@H]21)N1c2ccccc2Oc2ccccc21", "note": "[4p, 12N-N′-Phenoxazinylcarbamoylmethyl aloperine]", "values": [{"measurement": "inhibition at 40 µM", "setting": "COL1A1 promotor", "result": "72.2 ± 1.5", "unit": "%"}, {"measurement": "inhibition at 80 µM", "setting": "COL1A1 promotor", "result": "99.1 ± 1", "unit": "%"}, {"measurement": "IC50", "setting": "COL1A1 promotor", "result": "16.5 ± 0.4", "unit": "µM"}, {"measurement": "Inhibitory rate of COL1A1 transcription (mRNA)", "setting": "COL1A1 mRNA; [1]", "result": 99.5, "unit": "%"}, {"measurement": "Inhibitory rate of COL1A1 transcription (mRNA)", "setting": "COL1A1 mRNA; [2]", "result": 102.9, "unit": "%"}, {"measurement": "Inhibitory rate of COL1A1 transcription (mRNA)", "setting": "COL1A1 mRNA; absence of TGF-β1, 6 μM", "result": 38, "unit": "%"}, {"measurement": "Inhibitory rate of COL1A1 transcription (mRNA)", "setting": "COL1A1 mRNA; absence of TGF-β1, 12 μM", "result": 42, "unit": "%"}, {"measurement": "Inhibitory rate of TGFB1 mRNA expression", "setting": "TGFB1 mRNA; 6 μM", "result": 60.8, "unit": "%"}, {"measurement": "Inhibitory rate of TGFB1 mRNA expression", "setting": "TGFB1 mRNA; 12 μM", "result": 63.8, "unit": "%"}]}]}
